The values that follow come from the supplement of paper PMC10307832.

Holding throughout (test): relative viability (nuclei count vs DMSO), 5 days (fraction); higher = more cells survive
Compound in one experiment: C1CCC(CC1)N(CCNCCC2=C3C(=C(C=C2)O)NC(=O)CO3)C(=O)CCNCCC4=CC(=C(C=C4)Cl)Cl [AZ505]
The gist of the method: (§1)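 Lung cancer cell lines received five library-drug doses (not always all listed) spaced by √10, pinned on vehicle-anchored 1536-well plates after an overnight stay at 37 °C. Five days later, with no medium change, nuclei were Hoechst-stained, imaged at 4× and counted with MetaXpress. Viability is treated-well nuclei relative to vehicle-well nuclei, as a median across plates. Passing plates had control CV below 25% and at least one doubling.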

Compound in a further experiment: Cn1c(=O)n(-c2ccc(C(C)(C)C#N)cc2)c2c3cc(-c4cnc5ccccc5c4)ccc3ncc21 [Dactolisib]
A digest of the protocol:
as §1

Compound in the experiment “Dactolisib + Navitoclax”: Cn1c(=O)n(-c2ccc(C(C)(C)C#N)cc2)c2c3cc(-c4cnc5ccccc5c4)ccc3ncc21 [Dactolisib] + CC1(C)CCC(c2ccc(Cl)cc2)=C(CN2CCN(c3ccc(C(=O)NS(=O)(=O)c4ccc(N[C@H](CCN5CCOCC5)CSc5ccccc5)c(S(=O)(=O)C(F)(F)F)c4)cc3)CC2)C1 [Navitoclax] (partner 0.5 µM)
A digest of the protocol:
(§2)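 Lung cancer cell lines in 1536-well plates were dosed by pin tool the day after seeding, either with one drug alone or with a fixed anchor-drug dose plus five library-drug doses (not always all listed) in √10 steps. After 5 days, cells were fixed and their nuclei stained in one step (final 0.05% Triton X-100, 1% formaldehyde, 1 ug/ml Hoechst), then counted on 4× images. Relative viability is the nuclei count in treated wells divided by that in vehicle wells. Values are medians of duplicate plates.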

Compound in the experiment “AZ505 + Trametinib”: C1CCC(CC1)N(CCNCCC2=C3C(=C(C=C2)O)NC(=O)CO3)C(=O)CCNCCC4=CC(=C(C=C4)Cl)Cl [AZ505] + CC(=O)Nc1cccc(-n2c(=O)n(C3CC3)c(=O)c3c(Nc4ccc(I)cc4F)n(C)c(=O)c(C)c32)c1 [Trametinib] (partner 0.02 µM)
A digest of the protocol:
as §2

As for NCI-H2170, the relative viability came to 0.953 in the experiment with AZ505 (0.08 µM); 1.01 with AZ505 (0.253 µM); 0.932 in the experiment with AZ505 (0.8 µM); 0.998 with AZ505 (2.53 µM); 0.976 with AZ505 (8 µM); 1.02 with Dactolisib (0.002 µM). Besides, the relative viability in the experiment with Dactolisib (0.006325 µM) was found to be 0.971; in the experiment with Dactolisib (0.02 µM), 0.96; with Dactolisib (0.06325 µM), 0.648; with Dactolisib (0.2 µM) it was 0.447; in the experiment with Dactolisib + Navitoclax (first compound 0.002 µM) it was 0.58; with Dactolisib + Navitoclax (first compound 0.006325 µM), 0.512. In addition, the relative viability with Dactolisib + Navitoclax (first compound 0.02 µM) turned out to be 0.473; with Dactolisib + Navitoclax (first compound 0.06325 µM), 0.217; with Dactolisib + Navitoclax (first compound 0.2 µM) it was 0.198; in the experiment with AZ505 + Trametinib (first compound 0.08 µM), 0.84; in the experiment with AZ505 + Trametinib (first compound 0.253 µM), 0.931; with AZ505 + Trametinib (first compound 0.8 µM) it was 0.883. In addition, the relative viability with AZ505 + Trametinib (first compound 2.53 µM) was determined as 0.893; in the experiment with AZ505 + Trametinib (first compound 8 µM), 0.942.
Turning to NCI-H1395, the relative viability with AZ505 (0.08 µM) came out at 0.901; in the experiment with AZ505 (0.253 µM) it was 0.815; with AZ505 (0.8 µM), 0.879; with AZ505 (2.53 µM) it was 0.903; with AZ505 (8 µM) it was 1.03; with Dactolisib (0.002 µM), 0.781. Moreover, the relative viability turned out to be 0.852 with Dactolisib (0.006325 µM); 0.807 with Dactolisib (0.02 µM); 0.67 with Dactolisib (0.06325 µM); 0.577 in the experiment with Dactolisib (0.2 µM); 0.834 with Dactolisib + Navitoclax (first compound 0.002 µM); 1.03 with Dactolisib + Navitoclax (first compound 0.006325 µM). The relative viability with Dactolisib + Navitoclax (first compound 0.02 µM) worked out at 0.999; with Dactolisib + Navitoclax (first compound 0.06325 µM), 0.821; in the experiment with Dactolisib + Navitoclax (first compound 0.2 µM), 0.631; in the experiment with AZ505 + Trametinib (first compound 0.08 µM), 1.06; with AZ505 + Trametinib (first compound 0.8 µM), 0.991; with AZ505 + Trametinib (first compound 2.53 µM), 1.01. Further, the relative viability with AZ505 + Trametinib (first compound 8 µM) came to 1.14.
On to NCI-H838, for which the relative viability with AZ505 (0.08 µM) was 0.915; in the experiment with AZ505 (0.253 µM) it was 0.976; with AZ505 (0.8 µM) it was 0.948; with AZ505 (2.53 µM), 0.942; in the experiment with AZ505 (8 µM), 0.998; with Dactolisib (0.002 µM), 0.978. In addition, the relative viability with Dactolisib (0.006325 µM) is 0.775; in the experiment with Dactolisib (0.02 µM) it was 0.659; with Dactolisib (0.06325 µM), 0.347; in the experiment with Dactolisib (0.2 µM), 0.296; with Dactolisib + Navitoclax (first compound 0.002 µM), 1.13; in the experiment with Dactolisib + Navitoclax (first compound 0.006325 µM), 0.776. Also, the relative viability was found to be 0.474 with Dactolisib + Navitoclax (first compound 0.02 µM); 0.205 with Dactolisib + Navitoclax (first compound 0.06325 µM); 0.251 in the experiment with Dactolisib + Navitoclax (first compound 0.2 µM); 0.487 in the experiment with AZ505 + Trametinib (first compound 0.08 µM); 0.464 with AZ505 + Trametinib (first compound 0.253 µM); 0.505 with AZ505 + Trametinib (first compound 0.8 µM). For the same cell line, the relative viability with AZ505 + Trametinib (first compound 2.53 µM) stood at 0.523; in the experiment with AZ505 + Trametinib (first compound 8 µM) it was 0.479.
Consider CAL-12T, for which the relative viability with AZ505 (0.08 µM) turned out to be 0.909; with AZ505 (0.253 µM) it was 0.941; in the experiment with AZ505 (0.8 µM), 0.967; with AZ505 (2.53 µM), 0.956; in the experiment with AZ505 (8 µM), 1.03; with Dactolisib (0.002 µM), 1.01. The relative viability turned out to be 0.976 in the experiment with Dactolisib (0.006325 µM); 0.721 in the experiment with Dactolisib (0.02 µM); 0.342 with Dactolisib (0.06325 µM); 0.323 with Dactolisib (0.2 µM); 1.38 with Dactolisib + Navitoclax (first compound 0.002 µM); 1.17 with Dactolisib + Navitoclax (first compound 0.006325 µM). For the same cell line, the relative viability with Dactolisib + Navitoclax (first compound 0.02 µM) was 0.681; in the experiment with Dactolisib + Navitoclax (first compound 0.06325 µM) it was 0.264; with Dactolisib + Navitoclax (first compound 0.2 µM), 0.25; with AZ505 + Trametinib (first compound 0.08 µM), 0.335; in the experiment with AZ505 + Trametinib (first compound 0.253 µM), 0.414; in the experiment with AZ505 + Trametinib (first compound 0.8 µM), 0.312. Moreover, the results for the relative viability with AZ505 + Trametinib (first compound 2.53 µM) and in the experiment with AZ505 + Trametinib (first compound 8 µM) were 0.36 and 0.337, respectively.
